Data published in patent US11912693B2, “Compounds for modulating S1P1 activity and methods of using the same” (TREVENA, INC., priority 2017, dated 2024).

Assays:
[1] = biological target: T1, human sphingosine-1-phosphate receptor 1 (S1P1) (Homo sapiens (Human), UniProt P21453); experiment: β-Arrestin2 recruitment assay (PathHunter), S1P1 CHO-K1 cells; format: cell-based; conditions: for Emax: CHO-K1, efficacy (SPAN) normalized to fingolimod, read-out: hS1P1 B-arrestin2 SPAN
Method in brief: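 Enzyme-fragment complementation read-out: agonist-driven β-arrestin2 binding to ProLink-tagged human S1P1 in stable CHO-K1 cells restores β-galactosidase, measured 1 h at room temperature after a 60 min 37° C. compound incubation. Potency as pEC50, efficacy relative to fingolimod (SPAN).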
Target sequence in this assay (P21453 whole entry, looked up, the tested form may be a part): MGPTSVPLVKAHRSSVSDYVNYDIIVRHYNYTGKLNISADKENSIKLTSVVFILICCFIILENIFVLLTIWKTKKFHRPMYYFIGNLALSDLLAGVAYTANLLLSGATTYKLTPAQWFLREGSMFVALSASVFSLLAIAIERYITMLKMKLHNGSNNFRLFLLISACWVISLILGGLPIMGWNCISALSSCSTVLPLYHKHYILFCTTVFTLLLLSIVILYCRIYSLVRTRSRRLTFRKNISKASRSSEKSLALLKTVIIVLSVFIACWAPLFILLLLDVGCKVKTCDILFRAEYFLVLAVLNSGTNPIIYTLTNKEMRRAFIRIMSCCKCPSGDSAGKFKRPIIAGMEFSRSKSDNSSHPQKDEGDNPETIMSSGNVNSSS
Target sequence in this assay (P32121 whole entry partner, looked up, the tested form may be a part): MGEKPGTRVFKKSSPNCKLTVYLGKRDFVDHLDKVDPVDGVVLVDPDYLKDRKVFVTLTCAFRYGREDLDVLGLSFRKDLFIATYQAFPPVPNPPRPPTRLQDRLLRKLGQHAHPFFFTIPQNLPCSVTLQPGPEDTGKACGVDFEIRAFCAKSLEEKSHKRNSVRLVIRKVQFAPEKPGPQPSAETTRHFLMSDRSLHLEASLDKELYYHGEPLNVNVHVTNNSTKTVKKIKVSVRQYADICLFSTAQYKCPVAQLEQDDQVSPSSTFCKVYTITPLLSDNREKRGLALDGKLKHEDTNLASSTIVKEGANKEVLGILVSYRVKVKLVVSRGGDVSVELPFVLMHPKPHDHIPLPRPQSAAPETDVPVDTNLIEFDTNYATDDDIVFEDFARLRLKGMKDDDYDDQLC

[2] = biological target: T1, human sphingosine-1-phosphate receptor 1 (S1P1); experiment: Inhibition of cAMP production (HTRF cAMP HiRange), S1P1 CHO-K1 cells; format: cell-based; conditions: for Emax: CHO-K1, efficacy (SPAN) normalized to fingolimod, read-out: hS1P1 cAMP SPAN
Method in brief: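 CHO-K1 cells stably co-expressing human S1P1 (C-terminal Prolink tag) and EA-β-arrestin2 were grown in AssayComplete Media 6 at 37° C. and 5% CO2, plated, and incubated overnight. Agonist-driven inhibition of intracellular cAMP was read by TR-FRET with the HTRF cAMP HiRange kit on a PheraStar reader. Potency is pEC50, and efficacy (SPAN) is normalized to fingolimod.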
Target sequence in this assay (P21453 whole entry, looked up, the tested form may be a part): as the sequence (P21453 whole entry, looked up, the tested form may be a part) above

[3] = β-arrestin2 recruitment, S1P1 CHO-K1 cells
[4] = inhibition of cAMP production, S1P1 CHO-K1 cells

## CC1CC(=O)c2ccc(-c3nc(-c4ccncc4)no3)cc2O1 (stereo not shown) [Compound 536, 2-methyl-7-[3-(pyridin-4-yl)-1,2,4-oxadiazol-5-yl]-3,4-dihydro-2H-1-benzopyran-4-one]
[1]; [3]
  hS1P1 B-arrestin2 pEC50: >5
[2]; [4]
  hS1P1 cAMP pEC50: <6.5

## COc1ccncc1-c1nc(-c2ccc3c(c2)nnn3C(C)C)no1 [Compound 605, 3-(1-isopropyl-1H-benzo[d][1,2,3]triazol-5-yl)-5-(4-methoxypyridin-3-yl)-1,2,4-oxadiazole]
[1]
  Emax: > 75%
[1]; [3]
  hS1P1 B-arrestin2 pEC50: >5
[2]
  Emax: > 75%
[2]; [4]
  hS1P1 cAMP pEC50: >6.5

## CC(C)n1nnc2cc(-c3noc(-c4ccccc4C#N)n3)ccc21 [Compound 279, 2-(3-(1-isopropyl-1H-benzo[d][1,2,3]triazol-5-yl)-1,2,4-oxadiazol-5-yl)benzonitrile]
[1]
  Emax: > 75%
[1]; [3]
  hS1P1 B-arrestin2 pEC50: <5
[2]
  Emax: > 75%
[2]; [4]
  hS1P1 cAMP pEC50: <6.5

## Cc1ccc(-c2noc(-c3ccc4c(c3)nnn4C3CCCC3)n2)cc1 [Compound 164, 1-cyclopentyl-5-[3-(4-methylphenyl)-1,2,4-oxadiazol-5-yl]-1H-1,2,3-benzotriazole]
[1]; [3]
  hS1P1 B-arrestin2 pEC50: <5
[2]; [4]
  hS1P1 cAMP pEC50: <6.5

## COc1cc(-c2noc(-c3ccc4c(c3)nnn4C3CCCC3)n2)ccn1 [Compound 281, 1-cyclopentyl-5-[3-(2-methoxypyridin-4-yl)-1,2,4-oxadiazol-5-yl]-1H-1,2,3-benzotriazole]
[1]
  Emax: < 75%
[1]; [3]
  hS1P1 B-arrestin2 pEC50: <5
[2]
  Emax: < 75%
[2]; [4]
  hS1P1 cAMP pEC50: <6.5

## CCC1(CC)CC(=O)c2cc(-c3ncc(-c4ccnc(O)c4)cn3)ccc2O1 [Compound 552, 2,2-diethyl-6-(5-(2-hydroxypyridin-4-yl)pyrimidin-2-yl)chroman-4-one]
[1]; [3]
  hS1P1 B-arrestin2 pEC50: <5
[2]; [4]
  hS1P1 cAMP pEC50: <6.5

## Cc1ccccc1-c1nc(-c2ccc3c(c2)nnn3CC(C)(C)CO)no1 [Compound 505, 2,2-dimethyl-3-(5-(5-(o-tolyl)-1,2,4-oxadiazol-3-yl)-1H-benzo[d][1,2,3]triazol-1-yl)propan-1-ol]
[1]; [3]
  hS1P1 B-arrestin2 pEC50: <5
[2]; [4]
  hS1P1 cAMP pEC50: <6.5

## N#Cc1cc(-c2nnc(-c3ccc4c(c3)CCC(=O)N4)o2)ccc1NCC(F)F [Compound 477, 2-[(2,2-difluoroethyl)amino]-5-[5-(2-oxo-1,2,3,4-tetrahydroquinolin-6-yl)-1,3,4-oxadiazol-2-yl]benzonitrile]
[1]; [3]
  hS1P1 B-arrestin2 pEC50: >5
[2]; [4]
  hS1P1 cAMP pEC50: >6.5

## CC(C)n1nnc2cc(-c3nc(Cc4ccccc4)no3)ccc21 [Compound 88, 5-(3-benzyl-1,2,4-oxadiazol-5-yl)-1-(propan-2-yl)-1H-1,2,3-benzotriazole]
[1]
  Emax: < 75%
[1]; [3]
  hS1P1 B-arrestin2 pEC50: <5
[2]
  Emax: < 75%
[2]; [4]
  hS1P1 cAMP pEC50: <6.5

## CC(C)n1ccc2cc(-c3noc(-c4ccccc4Br)n3)ccc21 [Compound 388, 5-(2-bromophenyl)-3-(1-isopropyl-1H-indol-5-yl)-1,2,4-oxadiazole]
[1]; [3]
  hS1P1 B-arrestin2 pEC50: >5
[2]; [4]
  hS1P1 cAMP pEC50: >6.5

## COc1cccc(F)c1-c1noc(-c2ccc3c(c2)nnn3C(C)C)n1 [Compound 260, 3-(2-fluoro-6-methoxy-phenyl)-5-(1-isopropylbenzotriazol-5-yl)-1,2,4-oxadiazole]
[1]
  Emax: > 75%
[1]; [3]
  hS1P1 B-arrestin2 pEC50: <5
[2]
  Emax: > 75%
[2]; [4]
  hS1P1 cAMP pEC50: <6.5

## CC(C)Oc1ccc(-c2ccc(-c3ccc4c(c3)nnn4C(C)C)cc2)cc1C#N [Compound 506, 4-isopropoxy-4′-(1-isopropyl-1H-benzo[d][1,2,3]triazol-5-yl)-[1,1′-biphenyl]-3-carbonitrile]
[1]
  Emax: < 75%
[1]; [3]
  hS1P1 B-arrestin2 pEC50: >5
[2]
  Emax: < 75%
[2]; [4]
  hS1P1 cAMP pEC50: >6.5

## CC(C)n1nnc2cc(-c3ncc(-c4ccccc4C(F)(F)F)s3)ccc21 [Compound 215, 2-(1-isopropyl-1H-benzo[d][1,2,3]triazol-5-yl)-5-(2-(trifluoromethyl)phenyl)thiazole]
[1]
  Emax: < 75%
[1]; [3]
  hS1P1 B-arrestin2 pEC50: <5
[2]
  Emax: < 75%
[2]; [4]
  hS1P1 cAMP pEC50: <6.5

## Cc1cnc(-c2noc(-c3ccc4c(c3)nnn4C(C)C)n2)cn1 [Compound 157, 5-[3-(5-methylpyrazin-2-yl)-1,2,4-oxadiazol-5-yl]-1-(propan-2-yl)-1H-1,2,3-benzotriazole]
[1]; [3]
  hS1P1 B-arrestin2 pEC50: <5
[2]; [4]
  hS1P1 cAMP pEC50: <6.5

## CCC1(CC)CC(=O)c2cc(-c3nc(-c4ccncn4)no3)ccc2O1 [Compound 639, 2,2-diethyl-6-(3-(pyrimidin-4-yl)-1,2,4-oxadiazol-5-yl)chroman-4-one]
[1]; [3]
  hS1P1 B-arrestin2 pEC50: <5
[2]; [4]
  hS1P1 cAMP pEC50: <6.5

## Cc1occc1-c1noc(-c2ccc3c(c2)nnn3CC(C)(C)O)n1 [Compound 492, 2-methyl-1-{5-[3-(2-methylfuran-3-yl)-1,2,4-oxadiazol-5-yl]-1H-1,2,3-benzotriazol-1-yl}propan-2-ol]
[1]
  Emax: > 75%
[1]; [3]
  hS1P1 B-arrestin2 pEC50: <5
[2]
  Emax: > 75%
[2]; [4]
  hS1P1 cAMP pEC50: <6.5

## COc1cccc(-c2nc(-c3ccc4c(c3)nnn4C(C)C)no2)c1 [Compound 299, 3-(1-isopropylbenzotriazol-5-yl)-5-(3-methoxyphenyl)-1,2,4-oxadiazole]
[1]
  Emax: > 75%
[1]; [3]
  hS1P1 B-arrestin2 pEC50: <5
[2]
  Emax: < 75%
[2]; [4]
  hS1P1 cAMP pEC50: <6.5

## CC(C)(O)Cn1nnc2cc(-c3nc(-c4cocn4)no3)ccc21 [Compound 570, 2-methyl-1-{5-[3-(1,3-oxazol-4-yl)-1,2,4-oxadiazol-5-yl]-1H-1,2,3-benzotriazol-1-yl}propan-2-ol]
[1]
  Emax: < 75%
[1]; [3]
  hS1P1 B-arrestin2 pEC50: <5
[2]
  Emax: < 75%
[2]; [4]
  hS1P1 cAMP pEC50: <6.5

## CCC1(CC)CC(=O)c2cc(-c3nc(-c4cccs4)no3)ccc2O1 [Compound 467, 2,2-diethyl-6-(3-(thiophen-2-yl)-1,2,4-oxadiazol-5-yl)chroman-4-one]
[1]; [3]
  hS1P1 B-arrestin2 pEC50: >5
[2]; [4]
  hS1P1 cAMP pEC50: >6.5

## COc1ccccc1-c1nc(-c2ccc3c(c2)nnn3C(C)C)ns1 [Compound 138, 5-[5-(2-methoxyphenyl)-1,2,4-thiadiazol-3-yl]-1-(propan-2-yl)-1H-1,2,3-benzotriazole]
[1]
  Emax: > 75%
[1]; [3]
  hS1P1 B-arrestin2 pEC50: >5
[2]
  Emax: > 75%
[2]; [4]
  hS1P1 cAMP pEC50: >6.5

## Cc1cc(-c2noc(-c3ccc4c(c3)nnn4C(C)C)n2)c(C)o1 [Compound 490, 5-[3-(2,5-dimethylfuran-3-yl)-1,2,4-oxadiazol-5-yl]-1-(propan-2-yl)-1H-1,2,3-benzotriazole]
[1]
  Emax: > 75%
[1]; β-arrestin2 recruitment, S1P1 CHO-K1 cells, read-out: hS1P1 B-arrestin2 pEC50 (converted)
  EC50: < 10 µM
[2]
  Emax: > 75%
[2]; inhibition of cAMP production, S1P1 CHO-K1 cells, read-out: hS1P1 cAMP pEC50 (converted)
  EC50: < 0.316 µM

## CC(C)c1ccc(-c2nc(-c3ccc4c(c3)nnn4C(C)C)no2)cn1 [Compound 25, 3-(1-isopropyl-1H-benzo[d][1,2,3]triazol-5-yl)-5-(6-isopropylpyridin-3-yl)-1,2,4-oxadiazole]
[1]; [3]
  hS1P1 B-arrestin2 pEC50: <5
[2]; [4]
  hS1P1 cAMP pEC50: <6.5

## COc1cccc(F)c1-c1noc(-c2ccc3c(cnn3C(C)C)c2)n1 [Compound 338, 3-(2-fluoro-6-methoxy-phenyl)-5-(1-isopropylindazol-5-yl)-1,2,4-oxadiazole]
[1]
  Emax: > 75%
[1]; [3]
  hS1P1 B-arrestin2 pEC50: <5
[2]
  Emax: > 75%
[2]; [4]
  hS1P1 cAMP pEC50: <6.5

## Cn1ccnc1-c1noc(-c2ccc3c(c2)nnn3CC(C)(C)O)n1 [Compound 567, 2-methyl-1-{5-[3-(1-methyl-1H-imidazol-2-yl)-1,2,4-oxadiazol-5-yl]-1H-1,2,3-benzotriazol-1-yl}propan-2-ol]
[1]; [3]
  hS1P1 B-arrestin2 pEC50: <5
[2]; [4]
  hS1P1 cAMP pEC50: <6.5

## COc1cc(C)c2nc(-c3ccc4c(c3)nnn4C(C)C)oc2c1 [Compound 436, 2-(1-isopropyl-1H-benzo[d][1,2,3]triazol-5-yl)-6-methoxy-4-methylbenzo[d]oxazole]
[1]
  Emax: > 75%
[1]; [3]
  hS1P1 B-arrestin2 pEC50: <5
[2]
  Emax: > 75%
[2]; [4]
  hS1P1 cAMP pEC50: >6.5

## Cc1ccc(-c2noc(-c3ccc4c(c3)nnn4C3CC3)n2)cn1 [Compound 87, 1-cyclopropyl-5-[3-(6-methylpyridin-3-yl)-1,2,4-oxadiazol-5-yl]-1H-1,2,3-benzotriazole]
[1]
  Emax: < 75%
[1]; [3]
  hS1P1 B-arrestin2 pEC50: <5
[2]
  Emax: < 75%
[2]; [4]
  hS1P1 cAMP pEC50: <6.5

## O=C1CNc2ccc(-c3nc(-c4cn[nH]c4)no3)cc2N1 [Compound 645, 7-[3-(1H-pyrazol-4-yl)-1,2,4-oxadiazol-5-yl]-1,2,3,4-tetrahydroquinoxalin-2-one]
[1]; [3]
  hS1P1 B-arrestin2 pEC50: <5
[2]; [4]
  hS1P1 cAMP pEC50: <6.5

## Cc1ccsc1-c1noc(-c2ccc3c(c2)nnn3C2CCCC2)n1 [Compound 46, 1-cyclopentyl-5-[3-(3-methylthiophen-2-yl)-1,2,4-oxadiazol-5-yl]-1H-1,2,3-benzotriazole]
[1]; [3]
  hS1P1 B-arrestin2 pEC50: >5
[2]; [4]
  hS1P1 cAMP pEC50: >6.5

## CCCn1nnc2cc(-c3nc(-c4ccncc4)no3)ccc21 [Compound 205, 1-propyl-5-[3-(pyridin-4-yl)-1,2,4-oxadiazol-5-yl]-1H-1,2,3-benzotriazole]
[1]
  Emax: < 75%
[1]; [3]
  hS1P1 B-arrestin2 pEC50: <5
[2]
  Emax: > 75%
[2]; [4]
  hS1P1 cAMP pEC50: <6.5

## CCC1(CC)CC(=O)c2cc(-c3nc(-c4ccc(N)cc4)no3)ccc2O1 [Compound 256, 6-(3-(4-aminophenyl)-1,2,4-oxadiazol-5-yl)-2,2-diethylchroman-4-one]
[1]
  Emax: > 75%
[1]; [3]
  hS1P1 B-arrestin2 pEC50: >5
[2]
  Emax: > 75%
[2]; [4]
  hS1P1 cAMP pEC50: >6.5
